Experimental data as given in patent publication US8624027B2, “Combination therapy for treating cancer and diagnostic assays for use therein” (AbbVie Inc., priority 2005, dated 2014).
pEC50, pKi: −log10 of the molar value. Where two headings read alike, the source gives them in different places.

How the values were obtained:
[1] = system: NCI-H146 human small cell lung carcinoma cells; assay: Cellular efficacy in human tumor cell line (MTS viability assay); assay type: cell-based; settings: NCI-H146, 10% human serum, 48 hours
Summary of the method: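 Cells plated at 50,000/well in medium with 10% human serum in place of FBS. Treated with 2-fold serial dilutions from 10 μM to 0.020 μM, in duplicate, at least 3 separate runs. Viable cells measured by MTS after 48 h of compound exposure.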

[2] = Pharmacokinetic evaluation in rat; assay type: in vivo; settings: male, Sprague-Dawley, plasma; for AUC(0-inf): single 5 mg/kg oral dose, Table 1, read-out: Pharmacokinetic area under the plasma concentration Curve (rat) AUC0-∞; for AUC / Cmax: 5 mg/kg, oral
Summary of the method: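 Male Sprague-Dawley rats (n=3/group) received a single 2 mg/kg IV (jugular slow bolus) or 5 mg/kg oral gavage dose in 10% DMSO/PEG-400; tail-vein plasma sampled to 24 h. Acetonitrile-precipitated plasma quantified by LC-MS/MS (LOQ 0.01 μg/mL); AUC0-∞ by linear trapezoidal rule plus Ct/β extrapolation.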

Bcl-XL protein = Bcl-XL protein (Homo sapiens, UniProt Q07817); assay: Bcl-XL binding affinity, fluorescence polarization with fluorescein-labeled BAD peptide; settings: Wang's equation, read-out: Target Binding Affinity Ki (Bcl-XL)
Experimental: A mixture comprising 125 μL per well of assay buffer (20 mM phosphate buffer (pH 7.4), 1 mM EDTA, 50 mM NaCl, 0.05% PF-68), 6 nM of Bcl-XL protein (prepared as described in Science 1997, 275, 983-986), 1 nM fluorescein-labeled BAD peptide (prepared in-house) and the DMSO solution of the compound was shaken for 2 minutes and placed in a LJL Analyst (LJL Bio Systems, CA). A negative control (DMSO, 15 nM BAD peptide, assay buffer) and a positive control (DMSO, 1 nM BAD peptide, 6 nM Bcl-XL, assay buffer) were used to determine the range of the assay. Polarization was measured at room temperature using a continuous Fluorescein lamp (excitation 485 nm, emission 530 nm). Percentage of inhibition was determined by (1-((mP value of well-negative control)/range))×100%.
Ki values shown in the tables below were determined using Wang's equation (Wang Z X., An Exact Mathematical Expression For Describing Competitive Binding Of Two Different Ligands To A Protein Molecule. FEBS Lett. 1995; 360:111-4)).

Bcl-2 protein = target: T1, Bcl-2 protein (Homo sapiens, UniProt P10415, DELINS35-91DVEENRTEAPEGTESE, form not given); assay: Bcl-2 binding affinity, fluorescence polarization with fluorescein-labeled BAX peptide; settings: Wang's equation, read-out: Target Binding Affinity Ki (Bcl-2)
T1 construct: fused on or other part: A short piece of the Bcl-xL (Q07817) loop replaces Bcl-2 loop residues 35-91; The C-terminal membrane anchor is absent

mantle cell lymphoma = assay: Oral efficacy of EXAMPLE 1 in combination therapy, antitumorigenesis on mantle cell lymphoma; assay type: in vivo; settings: without EXAMPLE 1
B-cell lymphoma = assay: Oral efficacy of EXAMPLE 1 in combination therapy, antitumorigenesis on B-cell lymphoma; assay type: in vivo; settings: without EXAMPLE 1
[3] = Table 1, read-out: NCI-H146 Cellular Efficacy EC50
[4] = Table 2, read-out: NCI-H146 Cellular Efficacy H146, EC50
[5] = Table 2, read-out: Pharmacokinetic area under the plasma concentration curve (rat) AUC
[6] = Table 2, read-out: Pharmacokinetic peak plasma concentration (rat) Cmax

T1 sequence (P10415 with tags, fused parts or gaps with the stated changes): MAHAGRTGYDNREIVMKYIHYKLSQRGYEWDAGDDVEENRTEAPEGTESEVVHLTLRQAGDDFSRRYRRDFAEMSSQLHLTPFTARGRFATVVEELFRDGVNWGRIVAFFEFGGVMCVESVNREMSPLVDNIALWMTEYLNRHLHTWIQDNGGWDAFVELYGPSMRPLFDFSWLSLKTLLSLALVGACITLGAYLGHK
Chain of Bcl-XL protein (Q07817 with tags, fused parts or gaps DEL45-84): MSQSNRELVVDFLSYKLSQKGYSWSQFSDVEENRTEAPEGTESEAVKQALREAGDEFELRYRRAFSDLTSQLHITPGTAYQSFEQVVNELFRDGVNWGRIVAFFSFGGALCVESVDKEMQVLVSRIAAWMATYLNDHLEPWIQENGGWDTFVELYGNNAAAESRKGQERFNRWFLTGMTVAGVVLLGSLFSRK

Molecule | pEC50 [1, 3] | AUC(0-inf) [2] [nM·h] | pKi (Bcl-XL protein) | pKi (Bcl-2 protein) | other results
O=C(NS(=O)(=O)c1ccc(N[C@H](CCN2CCCC2)CSc2ccccc2)c(S(=O)(=O)C(F)(F)F)c1)c1ccc(N2CCN(CC3=C(c4ccc(Cl)cc4)CCCCC3)CC2)cc1 [Example 29, N-(4-(4-((2-(4-chlorophenyl)cyclohept-1-en-1-yl)methyl)piperazin-1-yl)benzoyl)-4-(((1R)-1-((phenylsulfanyl)methyl)-3-(pyrrolidin-1-yl)propyl)amino)-3-((trifluoromethyl)sulfonyl)benzenesulfonamide] | 7.53 | 1740 | ≥ 9.00 | ≥ 9.00 | 
CC1(C)CCC(c2ccc(Cl)cc2)=C(CN2CCN(c3ccc(C(=O)NS(=O)(=O)c4ccc(N[C@H](CCN5CCCC5)CSc5ccccc5)c(S(=O)(=O)C(F)(F)Cl)c4)cc3)CC2)C1 [Example 30, 3-((chloro(difluoro)methyl)sulfonyl)-N-(4-(4-((2-(4-chlorophenyl)-5,5-dimethylcyclohex-1-en-1-yl)methyl)piperazin-1-yl)benzoyl)-4-(((1R)-1-((phenylsulfanyl)methyl)-3-(pyrrolidin-1-yl)propyl)amino)benzenesulfonamide] | 7.50 | 3390 | ≥ 9.00 | ≥ 9.00 | 
CC1(C)CCC(CN2CCN(c3ccc(C(=O)NS(=O)(=O)c4ccc(N[C@H](CCN5CCCC5)CSc5ccccc5)c(S(=O)(=O)C(F)(F)Cl)c4)cc3)CC2)=C(c2ccc(Cl)cc2)C1 [Example 31, 3-((chloro(difluoro)methyl)sulfonyl)-N-(4-(4-((2-(4-chlorophenyl)-4,4-dimethylcyclohex-1-en-1-yl)methyl)piperazin-1-yl)benzoyl)-4-(((1R)-1-((phenylsulfanyl)methyl)-3-(pyrrolidin-1-yl)propyl)amino)benzenesulfonamide] | 7.89 | 5100 | ≥ 9.00 | ≥ 9.00 | 
O=C(NS(=O)(=O)c1ccc(N[C@H](CCN2CCCC2)CSc2ccccc2)c(S(=O)(=O)C(F)(F)Cl)c1)c1ccc(N2CCN(CC3=C(c4ccc(Cl)cc4)CCCCC3)CC2)cc1 [Example 32, 3-((chloro(difluoro)methyl)sulfonyl)-N-(4-(4-((2-(4-chlorophenyl)cyclohept-1-en-1-yl)methyl)piperazin-1-yl)benzoyl)-4-(((1R)-1-((phenylsulfanyl)methyl)-3-(pyrrolidin-1-yl)propyl)amino)benzenesulfonamide] | 7.73 | 1380 | ≥ 9.00 | ≥ 9.00 | 
O=C(NS(=O)(=O)c1ccc(N[C@H](CCN2CCCC2)CSc2ccccc2)c(S(=O)(=O)C(F)(F)Cl)c1)c1ccc(N2CCN(CC3=C(c4ccc(Cl)cc4)CCCC3)CC2)cc1 [Example 35, 3-((chloro(difluoro)methyl)sulfonyl)-N-(4-(4-((2-(4-chlorophenyl)cyclohex-1-en-1-yl)methyl)piperazin-1-yl)benzoyl)-4-(((1R)-1-((phenylsulfanyl)methyl)-3-(pyrrolidin-1-yl)propyl)amino)benzenesulfonamide] | 8.12 | 1260 | ≥ 9.00 | ≥ 9.00 | 
CC1(C)CCC(CN2CCN(c3ccc(C(=O)NS(=O)(=O)c4ccc(N[C@H](CCN5C[C@@H]6C[C@H]5CO6)CSc5ccccc5)c(S(=O)(=O)C(F)(F)F)c4)cc3)CC2)=C(c2ccc(Cl)cc2)C1 [Example 36, N-(4-(4-((2-(4-chlorophenyl)-4,4-dimethylcyclohex-1-en-1-yl)methyl)piperazin-1-yl)benzoyl)-4-(((1R)-3-((1S,4S)-2-oxa-5-azabicyclo[2.2.1]hept-5-yl)-1-((phenylsulfanyl)methyl)propyl)amino)-3-((trifluoromethyl)sulfonyl)benzenesulfonamide] | 7.62 | 4220 | ≥ 9.00 | ≥ 9.00 | 
CC(C)C[C@H](NC(=O)[C@H](Cc1ccccc1)NC(=O)c1cnccn1)B(O)O [bortexomib, reference compound] |  |  |  |  | tumor regressions, agent alone (mantle cell lymphoma): no tumor regressions
CO[C@H]1C[C@@H]2CC[C@@H](C)[C@@](O)(O2)C(=O)C(=O)N2CCCC[C@H]2C(=O)O[C@H]([C@H](C)C[C@@H]2CC[C@@H](O)[C@H](OC)C2)CC(=O)[C@H](C)/C=C(\C)[C@@H](O)[C@@H](OC)C(=O)[C@H](C)C[C@H](C)/C=C/C=C/C=C/1C [rapamycin, reference compound] |  |  |  |  | tumor regressions, agent alone (B-cell lymphoma): 10%
rituximab: antibody, RITUXAN® (rituximab) [reference compound] |  |  |  |  | tumor regressions, agent alone (B-cell lymphoma): no tumor regressions

Second part, led by results:

pEC50 [1, 3] | AUC(0-inf) [2] [nM·h] | pKi (Bcl-XL protein) | pKi (Bcl-2 protein) | Molecule | other results
7.42 | 3010 | ≥ 9.00 | ≥ 9.00 | CC(C)N(C)CC[C@H](CSc1ccccc1)Nc1ccc(S(=O)(=O)NC(=O)c2ccc(N3CCN(CC4=C(c5ccc(Cl)cc5)CCCC4)CC3)cc2)cc1S(=O)(=O)C(F)(F)F [Example 33, N-(4-(4-((2-(4-chlorophenyl)cyclohex-1-en-1-yl)methyl)piperazin-1-yl)benzoyl)-4-(((1R)-3-(isopropyl(methyl)amino)-1-((phenylsulfanyl)methyl)propyl)amino)-3-((trifluoromethyl)sulfonyl)benzenesulfonamide] | pEC50 ([1]; Table 3, read-out: NCI-H146 Cellular Efficacy H146 EC50): 7.42; AUC ([2]; Table 3, read-out: Pharmacokinetic area under the plasma concentration Curve (rat) AUC): 3010 nM·h; Cmax ([2]; Table 3, read-out: Pharmacokinetic peak plasma concentration (rat) Cmax): 0.129 µM
7.70 | 11100 | ≥ 9.00 | ≥ 9.00 | CC1(C)CCC(CN2CCN(c3ccc(C(=O)NS(=O)(=O)c4ccc(N[C@H](CCN5CCCC5)CSc5ccccc5)c(S(=O)(=O)C(F)(F)F)c4)cc3)CC2)=C(c2ccc(Cl)cc2)C1 [Example 34, N-(4-(4-((2-(4-chlorophenyl)-4,4-dimethylcyclohex-1-en-1-yl)methyl)piperazin-1-yl)benzoyl)-4-(((1R)-1-((phenylsulfanyl)methyl)-3-(pyrrolidin-1-yl)propyl)amino)-3-((trifluoromethyl)sulfonyl)benzenesulfonamide] | 
7.76 | 7300 | ≥ 9.00 | ≥ 9.00 | CN(C)CC[C@H](CSc1ccccc1)Nc1ccc(S(=O)(=O)NC(=O)c2ccc(N3CCN(CC4=C(c5ccc(Cl)cc5)CC(C)(C)CC4)CC3)cc2)cc1S(=O)(=O)C(F)(F)F [Example 37, N-(4-(4-((2-(4-chlorophenyl)-4,4-dimethylcyclohex-1-en-1-yl)methyl)piperazin-1-yl)benzoyl)-4-(((1R)-3-(dimethylamino)-1-((phenylsulfanyl)methyl)propyl)amino)-3-((trifluoromethyl)sulfonyl)benzenesulfonamide] | 
7.40 | 670 | ≥ 9.00 | ≥ 9.00 | CN(C)CC[C@H](CSc1ccccc1)Nc1ccc(S(=O)(=O)NC(=O)c2ccc(N3CCN(Cc4ccccc4-c4ccc(Cl)cc4)CC3)cc2)cc1S(=O)(=O)C(F)(F)F [Example 38, N-(4-(4-((4′-chloro(1,1′-biphenyl)-2-yl)methyl)-1-piperazinyl)benzoyl)-4-(((1R)-3-(dimethylamino)-1-((phenylsulfanyl)methyl)propyl)amino)-3-((trifluoromethyl)sulfonyl)benzenesulfonamide] | pEC50 [1, 4]: 7.41; AUC [2, 5]: 665 nM·h; Cmax [2, 6]: 0.072 µM
7.08 | 1660 | ≥ 9.00 | ≥ 9.00 | O=C(NS(=O)(=O)c1ccc(N[C@H](CCN2CCOCC2)CSc2ccccc2)c(S(=O)(=O)C(F)(F)F)c1)c1ccc(N2CCN(Cc3ccccc3-c3ccc(Cl)cc3)CC2)cc1 [Example 39, N-(4-(4-((4′-chloro(1,1′-biphenyl)-2-yl)methyl)-1-piperazinyl)benzoyl)-4-(((1R)-3-(4-morpholinyl)-1-((phenylsulfanyl)methyl)propyl)amino)-3-((trifluoromethyl)sulfonyl)benzenesulfonamide] | pEC50 [1, 4]: 7.08; AUC [2, 5]: 1660 nM·h; Cmax [2, 6]: 0.29 µM
